# Measurements taken from patent US20260069693A1, “UROLITHINS AND T-CELL MEDIATED IMMUNE RESPONSE” (priority 2022, published 2026).
# Test system: Splenic murine T cells
# Experiment: aCD3/aCD28 stimulation of murine T cells in presence of UA, flow cytometry
# Type: cell-based
# Conditions: UA 50 μM + ICG001 10 μM, 48 h
# Method: Mitochondrial remodelling has been previously associated with alterations in T cell fate (Buck et al., 2016; Yu et al., 2020b). Given the observed dependency of the UA effect on CD8^+ T cells, the inventors wondered whether UA may also directly affect T cell fate commitment. Purified T cells from FVB mice were stimulated with aCD3/aCD28 beads to induce T cell differentiation into effector T cell subsets in the presence or absence of UA for up to 72 hours (FIG. 2A). […] Previously, a rare naïve-like subset of T cells with enhanced stemness capabilities, termed T memory stem cells (TSCM) has been identified (Gattinoni et al., 2009). TSCM are marked by extreme longevity, their ability to self-renew, and potential for immune reconstitution (Gattinoni et al., 2017) which translates into potent anti-tumor immunity. Phenotypically, TSCM represent a subset of minimally differentiated T cells, which share a CD44^loCD62L^hi phenotype with naïve T cells, but are phenotypically distinct by expressing high levels of Sca1 (Gattinoni et al., 2009). […] This was associated with reduced cyclin D1 expression (not shown), in line with previous observations that link TSCM reprogramming to halted proliferation (Gattinoni et al., 2009; Verma et al., 2021).
# Splenic murine T cells were isolated from mice aged 6-20 weeks by negative selection with EasySep mouse T cell isolation kit (Stem cell) according to the manufacturer's instructions. To monitor T cell proliferation, purified T cells were loaded with CellTrace Violet (C34557 ThermoFisher Scientific). T cell activation was initiated using αCD3/CD28 activation beads (11456D; ThermoFisher Scientific) at a ratio of 25 μl dynabeads per 0.5×10^6 T-cells. Cells were activated with 25-50 μM Urolithin A (Tocris) or DMSO in T cell activation Medium (RPMI (ThermoFisher Scientific) 10% FBS (South America origin), 10 mM Hepes (Sigma), 1× Non-Essential Amino Acid, 1 mM Sodium Pyruvate, 50 μM B-Mercaptoethanol, 100 U/ml penicillin, 100 μg/ml streptomycin and 2 mM Glutamax (ThermoFisher Scientific) for the indicated durations. In selected experiments, cells were stimulated in the presence of inhibitors, namely TCF1i (ICG-001; SelleckChem; 10 μM) and PGC-1αi (SR-18292, Sigma-Aldrich; 10 μm,). For subsequent analysis, activating beads were magnetically removed prior antibody staining. For human T cells, peripheral blood mononuclear cells were purified with a Ficoll-Paque (GE healthcare) gradient. T cells were enriched with EasySep Human T Cell Isolation Kit (StemCell) and activated with dynabead Human T-Activator CD3/CD28 for T Cell Expansion and Activation Kit (11131D; ThermoFisher Scientific), similar to murine T cell stimulation. […]
# For flow cytometric analysis of mitochondria and lysosomes 500 μl of Mitotracker Red (200 nM; ThermoFisher) or Lysotracker Red DND-99 (75 nM; ThermoFisher) were applied followed by surface staining. To study changes in mitochondrial membrane potential, Mitoprobe TMRM kit (ThermoFisher) was used according to the manufacturer's instructions. Cell proliferation was assessed by CellTrace Violet (Invitrogen, C34557) at a concentration of 5 μM according to manufacturer's instructions. For human samples, cells were stained as described above with Fixable Viability Dye-eF780, αCD95-BV421 (DX2; 562616), αCD62L-PE (DREG-56; 555544), αCCR7-AF700 (150503; 561143), αCD45RO-APC (UCHL; 559865), αCD45RA-FITC (HI100; 555488), αCD8-PE-CF594 (RPA-T8; 562282) and αCD4-BV786 (OKT4; 566806) from BD.
smiles,measurement,value
"O=C1[C@H](Cc2ccc(O)cc2)N2C(=O)CCN(C(=O)NCc3ccccc3)[C@H]2CN1Cc1cccc2ccccc12 [ICG001, reference compound]",UA-induced TSCM formation in vitro under TCF-1 block,abrogated
